Data published in ChEMBL document CHEMBL4610097, “Daphnane Diterpenoids from Daphne genkwa Inhibit PI3K/Akt/mTOR Signaling and Induce Cell Cycle Arrest and Apoptosis in Human Colon Cancer Cells” (J Nat Prod, 2020).

Experiments:
Assay type in all cases: functional, cell-based
[1] = tested on: SW-620; experiment: Cytotoxicity against human SW620 cells after 24 hrs by MTT assay; conditions: SW-620, 24 h
[2] = tested on: RKO; experiment: Cytotoxicity against human RKO cells after 24 hrs by MTT assay
[3] = tested on: LoVo; experiment: Cytotoxicity against human LoVo cells after 24 hrs by MTT assay

Q: For `O=c1[nH]cc(F)c(=O)[nH]1` [FLUOROURACIL], which IC50 [1] is on record?
A: Its IC50 is 10 µM.

Q: And the IC50 [2]?
A: Its IC50 is over 10 µM.

Q: `C=C(C)[C@@]12O[C@@]3(/C=C/C=C/C=C\CCC)O[C@@H]1[C@@H]1[C@@H]4O[C@]4(CO)[C@@H](O)[C@]4(O)C(=O)C(C)=C[C@H]4[C@@]1(O3)[C@H](C)[C@H]2OC(C)=O` was tested. Which IC50 [1] did it give?
A: The IC50 was over 10 µM.

Q: And the IC50 [2]?
A: Its IC50 is over 10 µM.

Q: What about the IC50 [3] of the same compound?
A: Its IC50 is over 10 µM.

Q: `C=C(C)[C@@]12O[C@@]3(/C=C/C=C\CCCCC)O[C@@H]1[C@@H]1[C@@H]4O[C@]4(CO)[C@@H](O)[C@]4(O)C(=O)C(C)=C[C@H]4[C@@]1(O3)[C@H](C)[C@H]2OC(C)=O` was tested. Which IC50 [1] did it give?
A: The IC50 was over 10 µM.

Q: What about the IC50 [2] of the same compound?
A: The IC50 was over 10 µM.

Q: What about the IC50 [3] of the same compound?
A: The IC50 was over 10 µM.

Q: With `C=C(C)[C@@]12O[C@@]3(/C=C/C=C/C=C\CCC)O[C@@H]1[C@@H]1[C@@H]4O[C@]4(CO)[C@@H](O)[C@]4(O)C(=O)C(C)=C[C@H]4[C@@]1(O3)[C@H](C)[C@H]2OC(=O)c1ccccc1` as the compound, how does the IC50 [1] read?
A: Its IC50 is over 10 µM.

Q: What about the IC50 [2] of the same compound?
A: Its IC50 is over 10 µM.

Q: What about the IC50 [3] of the same compound?
A: The IC50 was over 10 µM.

Q: Which results are given for `C=C(C)[C@@]1(O)[C@H](O)[C@@H]2[C@@H]3O[C@]3(CO)[C@@H](O)[C@]3(O)C(=O)C(C)=C[C@H]3[C@@]2(O)[C@H](C)[C@H]1OC(C)=O`?
A: IC50 [1]: > 10 µM; IC50 [2]: > 10 µM; IC50 [3]: > 10 µM

Q: `C=C(C)[C@@]12O[C@@]3(c4ccccc4)O[C@@H]1[C@@H]1[C@H](O)[C@@](O)(CO)[C@@H](O)[C@]4(O)C(=O)C(C)=C[C@H]4[C@@]1(O3)[C@H](C)[C@H]2OC(=O)c1ccccc1` was tested. Which IC50 [1] did it give?
A: The IC50 was over 10 µM.

Q: And the IC50 [2]?
A: Its IC50 is over 10 µM.

Q: What about the IC50 [3] of the same compound?
A: The IC50 was over 10 µM.

Q: Which IC50 [1] does the source give for `C=C(C)[C@@]12O[C@@]3(/C=C/C=C/CCCCC)O[C@@H]1[C@@H]1[C@@H]4O[C@]4(CO)[C@@H](O)[C@]4(O)C(=O)C(C)=C[C@H]4[C@@]1(O3)[C@H](C)[C@H]2OC(=O)c1ccccc1` [GNIDILATIDIN] here?
A: Its IC50 is 4.3 µM.

Q: What about the IC50 [2] of the same compound?
A: The IC50 was 6.5 µM.

Q: For `C=C(C)[C@@]12O[C@@]3(c4ccccc4)O[C@@H]1[C@@H]1[C@@H]4O[C@]4(CO)[C@@H](O)[C@]4(O)C(=O)C(C)=C[C@H]4[C@@]1(O3)[C@H](C)[C@H]2OC(C)=O`, which IC50 [1] is on record?
A: The IC50 was over 10 µM.

Q: What about the IC50 [2] of the same compound?
A: Its IC50 is over 10 µM.

Q: And the IC50 [3]?
A: The IC50 was over 10 µM.

Q: Which results are given for `C=C(C)[C@@]12O[C@@]3(/C=C/C=C\CCCCC)O[C@@H]1[C@@H]1[C@@H]4O[C@]4(CO)[C@@H](O)[C@]4(O)C(=O)C(C)=C[C@H]4[C@@]1(O3)[C@H](C)[C@H]2OC(=O)c1ccccc1`?
A: IC50 [1]: 8.5 µM; IC50 [2]: > 10 µM

Q: With `C=C(C)[C@@]1(O)[C@H](OC(=O)/C=C/C=C/C=C/CCC)[C@@H]2[C@@H]3O[C@]3(CO)[C@@H](O)[C@]3(O)C(=O)C(C)=C[C@H]3[C@@]2(O)[C@H](C)[C@H]1OC(C)=O` as the compound, how does the IC50 [1] read?
A: Its IC50 is over 10 µM.

Q: What about the IC50 [2] of the same compound?
A: Its IC50 is over 10 µM.

Q: And the IC50 [3]?
A: The IC50 was over 10 µM.

Q: Which IC50 [1] does the source give for `C=C(C)[C@@]12O[C@@]3(/C=C/C=C/CCCCC)O[C@@H]1[C@@H]1[C@@H]4O[C@]4(CO)[C@@H](O)[C@]4(O)C(=O)C(C)=C[C@H]4[C@@]1(O3)[C@H](C)[C@H]2OC(=O)CC` here?
A: The IC50 was over 10 µM.

Q: What about the IC50 [2] of the same compound?
A: Its IC50 is over 10 µM.

Q: What about the IC50 [3] of the same compound?
A: Its IC50 is over 10 µM.

Q: For `C=C(C)[C@@]1(O)[C@H](OC(=O)/C=C/C=C/CCCCC)[C@@H]2[C@@H]3O[C@]3(CO)[C@@H](O)[C@]3(O)C(=O)C(C)=C[C@H]3[C@@]2(O)[C@H](C)[C@H]1OC(=O)c1ccccc1` [YUANHUAOATE E], which IC50 [1] is on record?
A: Its IC50 is over 10 µM.

Q: What about the IC50 [2] of the same compound?
A: Its IC50 is over 10 µM.

Q: What about the IC50 [3] of the same compound?
A: The IC50 was over 10 µM.

Q: Which results are given for `C=C(C)[C@@]1(O)[C@H](OC(=O)/C=C/C=C/CCCCC)[C@@H]2[C@H](O)[C@@](O)(CO)[C@@H](O)[C@]3(O)C(=O)C(C)=C[C@H]3[C@@]2(O)[C@H](C)[C@H]1OC(=O)c1ccccc1`?
A: IC50 [1]: > 10 µM; IC50 [2]: > 10 µM; IC50 [3]: > 10 µM

Q: For `C=C(C)[C@@]12O[C@@]3(c4ccccc4)O[C@@H]1[C@@H]1[C@@H]4O[C@]4(CO)[C@@H](O)[C@]4(O)C(=O)C(C)=C[C@H]4[C@@]1(O3)[C@H](C)[C@H]2OC(=O)C(C)C`, which IC50 [1] is on record?
A: Its IC50 is over 10 µM.

Q: What about the IC50 [2] of the same compound?
A: Its IC50 is over 10 µM.

Q: What about the IC50 [3] of the same compound?
A: Its IC50 is over 10 µM.

Q: Which results are given for `C=C(C)[C@@]12O[C@@]3(c4ccccc4)O[C@@H]1[C@@H]1[C@@H]4O[C@]4(CO)[C@@H](O)[C@]4(O)C(=O)C(C)=C[C@H]4[C@@]1(O3)[C@H](C)[C@H]2OC(=O)CCC`?
A: IC50 [1]: > 10 µM; IC50 [2]: > 10 µM; IC50 [3]: > 10 µM

Q: Which results are given for `C=C(C)[C@@]1(O)[C@H](OC(=O)/C=C/C=C/CCCCC)[C@@H]2[C@H](O)[C@@](O)(CO)[C@@H](O)[C@]3(O)C(=O)C(C)=C[C@H]3[C@@]2(O)[C@H](C)[C@H]1OC(C)=O`?
A: IC50 [1]: > 10 µM; IC50 [2]: > 10 µM; IC50 [3]: > 10 µM

Q: `C=C(C)[C@@]1(O)[C@H](OC(=O)/C=C/C=C/CCCCC)[C@@H]2[C@@H]3O[C@]3(CO)[C@@H](O)[C@]3(O)C(=O)C(C)=C[C@H]3[C@@]2(O)[C@H](C)[C@H]1OC(C)=O` was tested. Which IC50 [1] did it give?
A: The IC50 was over 10 µM.

Q: What about the IC50 [2] of the same compound?
A: Its IC50 is over 10 µM.

Q: And the IC50 [3]?
A: Its IC50 is over 10 µM.

Q: How did the IC50 [1] turn out when `C=C(C)[C@@]12O[C@@]3(c4ccccc4)O[C@@H]1[C@@H]1[C@@H]4O[C@]4(CO)[C@@H](O)[C@]4(O)C(=O)C(C)=C[C@H]4[C@@]1(O3)[C@H](C)[C@H]2OC(=O)c1ccccc1` was run?
A: Its IC50 is over 10 µM.

Q: And the IC50 [2]?
A: The IC50 was over 10 µM.

Q: And the IC50 [3]?
A: Its IC50 is over 10 µM.

Q: With `C=C(C)[C@@]12O[C@@]3(/C=C/C=C/CCCCC)O[C@@H]1[C@@H]1[C@@H]4O[C@]4(CO)[C@@H](O)[C@]4(O)C(=O)C(C)=C[C@H]4[C@@]1(O3)[C@H](C)[C@H]2O` as the compound, how does the IC50 [1] read?
A: Its IC50 is over 10 µM.

Q: What about the IC50 [2] of the same compound?
A: The IC50 was over 10 µM.

Q: And the IC50 [3]?
A: Its IC50 is over 10 µM.

Q: What does the source list for `C=C(C)[C@@]12O[C@@]3(/C=C/C=C/CCCCC)O[C@@H]1[C@@H]1[C@@H]4O[C@]4(CO)[C@@H](O)[C@]4(O)C(=O)C(C)=C[C@H]4[C@@]1(O3)[C@H](C)[C@H]2OC(=O)CCC`?
A: IC50 [1]: 5.2 µM; IC50 [2]: 9.7 µM

Q: For `C=C(C)[C@@]12O[C@@]3(/C=C/C=C/CCCCC)O[C@@H]1[C@@H]1[C@@H]4O[C@]4(CO)[C@@H](O)[C@]4(O)C(=O)C(C)=C[C@H]4[C@@]1(O3)[C@H](C)[C@H]2OC(=O)C(C)C`, which IC50 [1] is on record?
A: Its IC50 is over 10 µM.

Q: And the IC50 [2]?
A: Its IC50 is over 10 µM.

Q: What about the IC50 [3] of the same compound?
A: Its IC50 is over 10 µM.

Q: With `C=C(C)[C@@]12O[C@@]3(/C=C/C=C/CCCCC)O[C@@H]1[C@@H]1[C@@H]4O[C@]4(CO)[C@@H](O)[C@]4(O)C(=O)C(C)=C[C@H]4[C@@]1(O3)[C@H](C)[C@H]2OC(C)=O` [YUANHUADINE] as the compound, how does the IC50 [1] read?
A: Its IC50 is over 10 µM.

Q: What about the IC50 [2] of the same compound?
A: Its IC50 is over 10 µM.

Q: And the IC50 [3]?
A: Its IC50 is over 10 µM.
